Among the data in article PMC6832352, “Synthesis and Glycosidase Inhibition of Broussonetine M and Its Analogues” (Molecules, 2019) are IC50, inhibition % and inhibition values, retold here.

Assay [1] addresses β-Glucosidase. Nature of the assay: glycosidase inhibition assay, almond β-glucosidase. In kind it is biochemical. To be noted: for inhibition %: at 100 μM. The procedure:
(§1) With rat intestinal maltase as an exception, other enzymes were purchased from Sigma-Aldrich Chemical Co. (St. Louis, Mo. USA). Brush border membranes prepared from rat small intestine according to the method of Kessler et al. were assayed at pH 6.8 for rat intestinal maltase using maltose. The released D-glucose was determined colorimetrically using the Glucose CII-test Wako (Wako Pure Chemical Ind.; Osaka, Japan). Other glycosidase activities were determined using an appropriate p-nitrophenyl glycoside as substrate in a buffer solution at the optimal pH value of each enzyme. The reaction was stopped by adding 400 mM Na2CO3. The released p-nitrophenol was measured spectrometrically at 400 nm.

The next assay addresses T1, α-L-Rhamnosidase (Penicillium decumbens, UniProt S7ZS15).
T1 sequence (S7ZS15 1-894): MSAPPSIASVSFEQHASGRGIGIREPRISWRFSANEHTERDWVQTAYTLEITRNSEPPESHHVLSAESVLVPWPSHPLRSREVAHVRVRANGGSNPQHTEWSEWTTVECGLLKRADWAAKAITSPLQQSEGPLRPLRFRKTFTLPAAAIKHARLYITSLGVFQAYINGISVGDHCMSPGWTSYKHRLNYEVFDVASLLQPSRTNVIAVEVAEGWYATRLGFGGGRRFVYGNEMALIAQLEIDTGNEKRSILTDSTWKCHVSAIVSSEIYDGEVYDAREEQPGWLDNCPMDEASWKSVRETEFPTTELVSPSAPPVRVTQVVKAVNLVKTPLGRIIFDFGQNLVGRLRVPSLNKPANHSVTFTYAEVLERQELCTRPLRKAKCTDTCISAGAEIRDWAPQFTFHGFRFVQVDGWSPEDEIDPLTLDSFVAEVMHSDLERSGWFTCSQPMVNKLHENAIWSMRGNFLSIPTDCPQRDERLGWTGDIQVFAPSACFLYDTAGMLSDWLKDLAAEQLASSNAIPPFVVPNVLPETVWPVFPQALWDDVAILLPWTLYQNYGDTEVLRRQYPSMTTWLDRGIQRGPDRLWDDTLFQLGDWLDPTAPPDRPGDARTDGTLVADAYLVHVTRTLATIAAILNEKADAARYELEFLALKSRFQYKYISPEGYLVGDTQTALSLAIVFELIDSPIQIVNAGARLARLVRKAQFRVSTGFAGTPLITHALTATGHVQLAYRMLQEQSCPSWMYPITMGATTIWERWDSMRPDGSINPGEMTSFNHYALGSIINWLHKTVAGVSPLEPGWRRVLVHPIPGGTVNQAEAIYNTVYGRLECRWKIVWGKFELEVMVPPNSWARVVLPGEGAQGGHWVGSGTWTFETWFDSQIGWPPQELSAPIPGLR
Nature of the assay: glycosidase inhibition assay, P. decumbens α-L-rhamnosidase. Format: biochemical. The procedure:
as §1

Another assay deals with T2, α-Mannosidase (Canavalia ensiformis, UniProt C0HJB3).
T2 construct: purchased Sigma-Aldrich Chemical Co
T2 sequence (C0HJB3 1-981): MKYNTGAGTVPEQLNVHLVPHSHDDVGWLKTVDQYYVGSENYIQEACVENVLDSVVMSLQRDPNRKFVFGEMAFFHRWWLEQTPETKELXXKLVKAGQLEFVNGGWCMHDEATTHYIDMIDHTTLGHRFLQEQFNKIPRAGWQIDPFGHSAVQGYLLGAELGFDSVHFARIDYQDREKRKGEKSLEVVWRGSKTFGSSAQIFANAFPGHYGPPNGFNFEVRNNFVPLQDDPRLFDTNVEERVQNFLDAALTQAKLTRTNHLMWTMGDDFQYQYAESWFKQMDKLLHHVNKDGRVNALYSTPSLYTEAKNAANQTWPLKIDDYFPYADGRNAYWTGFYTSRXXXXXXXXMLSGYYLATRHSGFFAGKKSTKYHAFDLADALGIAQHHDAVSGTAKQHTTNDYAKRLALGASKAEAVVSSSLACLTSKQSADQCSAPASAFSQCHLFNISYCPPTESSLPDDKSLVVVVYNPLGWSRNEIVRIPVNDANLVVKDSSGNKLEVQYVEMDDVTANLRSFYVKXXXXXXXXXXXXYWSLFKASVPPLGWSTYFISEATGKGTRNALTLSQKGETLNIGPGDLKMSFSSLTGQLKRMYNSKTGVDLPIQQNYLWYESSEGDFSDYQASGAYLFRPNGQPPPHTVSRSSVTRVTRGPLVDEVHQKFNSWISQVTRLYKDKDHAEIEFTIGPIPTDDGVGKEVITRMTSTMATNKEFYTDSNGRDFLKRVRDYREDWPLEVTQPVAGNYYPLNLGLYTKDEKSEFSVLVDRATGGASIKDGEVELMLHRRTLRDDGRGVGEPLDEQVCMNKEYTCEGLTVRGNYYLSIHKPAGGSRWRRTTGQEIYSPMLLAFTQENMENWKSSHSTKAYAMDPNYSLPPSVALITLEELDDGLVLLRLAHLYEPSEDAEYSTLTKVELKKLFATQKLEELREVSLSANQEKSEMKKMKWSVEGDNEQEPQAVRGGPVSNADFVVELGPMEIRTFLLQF
Briefly: glycosidase inhibition assay, jack bean α-mannosidase. In kind it is biochemical. The procedure: as §1

A further assay has as its target T3, α-Galactosidase (Coffea arabica, UniProt Q42656).
T3 construct: purchased Sigma-Aldrich Chemical Co
Briefly: glycosidase inhibition assay, coffee beans α-galactosidase. Format: biochemical. To be noted: for IC50: α-Galactosidase, Coffee beans. The procedure:
as §1

Another assay has as its target β-Mannosidase. Briefly: glycosidase inhibition assay, snail β-mannosidase. Format: biochemical. To be noted: for inhibition %: at 100 μM. Here is the method:
as §1

For a further assay, the target named is β-Galactosidase. To be noted: β-galactosidase from bovine liver; natural product isolated by Kusano’s group; cited from earlier work.
The target of a further assay is T4, α-Glucosidase (Saccharomyces cerevisiae, UniProt P53341).
T4 construct: purchased Sigma-Aldrich Chemical Co
T4 sequence (P53341 whole entry): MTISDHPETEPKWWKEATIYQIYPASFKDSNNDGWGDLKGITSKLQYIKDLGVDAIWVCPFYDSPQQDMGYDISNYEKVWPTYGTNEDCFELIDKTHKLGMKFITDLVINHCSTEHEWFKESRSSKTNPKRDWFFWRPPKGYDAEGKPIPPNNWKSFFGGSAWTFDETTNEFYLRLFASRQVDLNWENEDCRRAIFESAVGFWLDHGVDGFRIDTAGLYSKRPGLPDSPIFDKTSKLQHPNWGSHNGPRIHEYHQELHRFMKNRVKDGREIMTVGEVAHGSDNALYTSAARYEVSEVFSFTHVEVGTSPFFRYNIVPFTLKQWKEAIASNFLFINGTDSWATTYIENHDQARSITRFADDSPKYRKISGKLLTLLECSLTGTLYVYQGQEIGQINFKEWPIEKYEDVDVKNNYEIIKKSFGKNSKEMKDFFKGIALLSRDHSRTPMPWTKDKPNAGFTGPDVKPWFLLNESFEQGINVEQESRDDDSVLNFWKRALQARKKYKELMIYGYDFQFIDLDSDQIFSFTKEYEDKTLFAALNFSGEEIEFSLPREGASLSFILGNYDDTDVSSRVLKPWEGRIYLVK
Briefly: glycosidase inhibition assay, yeast α-glucosidase. Format: biochemical. To be noted: for IC50: α-Glucosidase, Yeast. Here is the method: as §1

Another assay deals with T5, Amyloglucosidase (Aspergillus niger, UniProt P69328).
T5 construct: purchased Sigma-Aldrich Chemical Co
T5 sequence (P69328 25-640): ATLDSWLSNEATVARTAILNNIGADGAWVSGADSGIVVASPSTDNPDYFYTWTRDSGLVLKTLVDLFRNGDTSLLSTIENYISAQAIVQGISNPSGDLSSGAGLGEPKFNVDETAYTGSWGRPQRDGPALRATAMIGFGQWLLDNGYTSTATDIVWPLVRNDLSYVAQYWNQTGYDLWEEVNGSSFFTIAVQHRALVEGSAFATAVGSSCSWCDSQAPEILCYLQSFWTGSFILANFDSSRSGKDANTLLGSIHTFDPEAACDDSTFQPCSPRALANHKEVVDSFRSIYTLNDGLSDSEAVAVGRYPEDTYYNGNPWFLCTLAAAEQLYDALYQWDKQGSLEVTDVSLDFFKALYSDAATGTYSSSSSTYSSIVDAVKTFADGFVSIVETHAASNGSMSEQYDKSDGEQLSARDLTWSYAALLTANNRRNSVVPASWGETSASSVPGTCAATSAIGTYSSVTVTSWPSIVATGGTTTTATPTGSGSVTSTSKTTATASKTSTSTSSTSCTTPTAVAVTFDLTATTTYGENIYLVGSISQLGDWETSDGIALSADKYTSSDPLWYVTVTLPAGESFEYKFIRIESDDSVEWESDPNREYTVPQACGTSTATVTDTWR
Briefly: glycosidase inhibition assay, A. niger amyloglucosidase. In kind it is biochemical. Here is the method:
as §1

For assay [2], the target named is T6, β-Glucosidase (Bos taurus, UniProt F1MNT6).
T6 sequence (F1MNT6 1-469): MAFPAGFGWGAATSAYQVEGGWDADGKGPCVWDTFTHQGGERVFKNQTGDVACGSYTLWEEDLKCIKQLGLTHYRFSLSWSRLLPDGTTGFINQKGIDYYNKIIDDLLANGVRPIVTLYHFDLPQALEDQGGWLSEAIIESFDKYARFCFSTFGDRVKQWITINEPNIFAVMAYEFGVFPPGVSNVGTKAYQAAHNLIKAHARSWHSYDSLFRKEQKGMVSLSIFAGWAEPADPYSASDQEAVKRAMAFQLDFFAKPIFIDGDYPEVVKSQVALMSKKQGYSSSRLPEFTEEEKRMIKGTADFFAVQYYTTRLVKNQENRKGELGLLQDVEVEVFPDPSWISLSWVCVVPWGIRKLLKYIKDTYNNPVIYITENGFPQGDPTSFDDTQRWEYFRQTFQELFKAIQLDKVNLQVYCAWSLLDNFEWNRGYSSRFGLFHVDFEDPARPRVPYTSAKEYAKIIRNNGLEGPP
Briefly: glycosidase inhibition assay, bovine liver β-glucosidase. Format: biochemical. The procedure:
as §1

T3 sequence (Q42656 16-378): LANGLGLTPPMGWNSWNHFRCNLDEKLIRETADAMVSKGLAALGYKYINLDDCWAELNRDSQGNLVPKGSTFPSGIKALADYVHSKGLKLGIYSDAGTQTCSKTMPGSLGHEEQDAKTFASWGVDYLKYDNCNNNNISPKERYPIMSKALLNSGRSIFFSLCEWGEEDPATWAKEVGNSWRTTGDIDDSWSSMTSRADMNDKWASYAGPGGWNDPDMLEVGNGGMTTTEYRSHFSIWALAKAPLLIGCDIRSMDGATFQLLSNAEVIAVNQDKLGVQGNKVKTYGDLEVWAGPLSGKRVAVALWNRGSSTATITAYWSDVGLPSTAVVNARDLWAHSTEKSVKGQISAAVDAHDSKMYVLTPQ

Regarding `OCCC[C@@H](O)CCCCCCCCC[C@H]1N[C@H](CO)[C@@H](O)[C@@H]1O` [compound 3, (2R,3R,4R,5R)-2-hydroxymethyl-3,4-dihydroxyl-5-((10R)-10,13-(dihydroxyl)dec-1-yl)pyrrolidine], the IC50 against β-Glucosidase [1] is over 100 µM; against α-Mannosidase it was over 100 µM; at α-Galactosidase it was over 100 µM; against β-Mannosidase, over 100 µM; at β-Galactosidase, 8.1 µM; on α-Glucosidase, over 100 µM. At Amyloglucosidase, this molecule had an IC50 of over 100 µM. Moreover, the inhibition % in the assay with β-Glucosidase [1] stood at 10.0%; in the assay on β-Mannosidase, 1.7%. Besides, the inhibition at 100 µM against α-L-Rhamnosidase stood at 6.1%; against α-Mannosidase, 2.5%; at α-Galactosidase it was 0%; against α-Glucosidase, 2.6%; at Amyloglucosidase, 3.8%.

`OCCC[C@H](O)CCCCCCCCC[C@@H]1N[C@@H](CO)[C@H](O)[C@H]1O` [ent-3, (2S,3S,4S,5S)-2-hydroxymethyl-3,4-dihydroxyl-5-((10S)-10,13-(dihydroxyl)dec-1-yl) pyrrolidine]: the IC50 against β-Glucosidase [1], against α-Mannosidase, on α-Galactosidase, at β-Mannosidase, on α-Glucosidase and against Amyloglucosidase was over 100 µM in each case. Further, the inhibition % came out at 9.6% with β-Glucosidase [1] and 0% with β-Mannosidase. Also, the inhibition at 100 µM turned out to be 13.3% at α-L-Rhamnosidase; 2.2% against α-Mannosidase; 46.5% against β-Glucosidase [2]; 0.3% against α-Galactosidase; 1.9% on α-Glucosidase; 0% against Amyloglucosidase.

In the case of `OCCC[C@@H](O)CCCCCCCCC[C@@H]1N[C@@H](CO)[C@H](O)[C@H]1O` [ent-10’-epi-3], the IC50 at β-Glucosidase [1], at α-Mannosidase, at α-Galactosidase, at β-Mannosidase, against α-Glucosidase and at Amyloglucosidase was over 100 µM throughout. In addition, the values for the inhibition % in the assay on β-Glucosidase [1] and in the assay with β-Mannosidase were 8.0% and 2.0%, respectively. Moreover, the inhibition at 100 µM is 1.8% at α-L-Rhamnosidase; 1.8% against α-Mannosidase; 12.2% on α-Galactosidase; 1.9% against α-Glucosidase; 6.1% against Amyloglucosidase.

The IC50 is the concentration at which inhibition is half-maximal. Usually inhibition stands for the change of the read-out against control, counted positive when it falls. A higher inhibition goes with a strong effect.
